# Test results reported in patent US20240072809A1, “ASGPR-BINDING COMPOUNDS FOR THE DEGRADATION OF EXTRACELLULAR PROTEINS” (Avilar Therapeutics, Inc., priority 2020, published 2024).
# Target: ASGPR (Homo sapiens (Human), UniProt P07306)
# Assay: Affinity to ASGPR measured by surface plasmon resonance (SPR)
# Assay type: binding
# Settings: ASGPR ligands, Table 2; Biacore 8K, 25° C., steady state fit; read-out: SPR Binding External Calculation: KD
# Chain of ASGPR (P07306 whole entry): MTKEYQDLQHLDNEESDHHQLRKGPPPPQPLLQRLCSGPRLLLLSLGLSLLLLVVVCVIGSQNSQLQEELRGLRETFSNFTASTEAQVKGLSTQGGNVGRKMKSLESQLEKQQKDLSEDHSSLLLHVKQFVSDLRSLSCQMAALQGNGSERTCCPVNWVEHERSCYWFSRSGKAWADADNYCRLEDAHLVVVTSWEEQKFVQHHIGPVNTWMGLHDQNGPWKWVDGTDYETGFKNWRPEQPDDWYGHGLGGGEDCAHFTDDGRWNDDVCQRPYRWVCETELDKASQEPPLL
row,Kd [µM],Compound
1,< 100,CO[C@@H]1O[C@H](CO)[C@H](O)[C@H](O)[C@H]1Nc1nc(Cl)cs1 [Compound A108]
2,> 1000,"C[C@@H]1CO[C@H](CO)[C@H](O)[C@@H]1O [Compound A182, (2R,3R,4R,5R)-2-(hydroxymethyl)-5-methyltetrahydro-2H-pyran-3,4-diol]"

# Same assay, conditions: ASGPR ligands, Table 4; class symbols; read-out: ASGPR_PR Binding KD
row,Kd [µM],Compound
1,100 to 500,"O=C(N[C@@H]1CO[C@H](CO)[C@H](O)[C@@H]1O)c1ccccc1 [Compound A136, N-((3R,4R,5R,6R)-4,5-dihydroxy-6-(hydroxymethyl)tetrahydro-2H-pyran-3-yl)benzamide]"
2,< 100,"C=CCO[C@H]1O[C@H](CO)[C@H](O)[C@H](O)[C@H]1NC(=O)C(F)(F)F [Compound A404, N-((2S,3R,4R,5R,6R)-2-(allyloxy)-4,5-dihydroxy-6-(hydroxymethyl)tetrahydro-2H-pyran-3-yl)-2,2,2-trifluoroacetamide]"
3,< 100,"CCOc1cc(Cl)nc(N[C@H]2CO[C@H](CO)[C@H](O)[C@@H]2O)n1 [Compound A367, (2R,3R,4R,5S)-5-((4-chloro-6-ethoxypyrimidin-2-yl)amino)-2-(hydroxymethyl)tetrahydro-2H-pyran-3,4-diol]"
4,< 100,"COc1nc(C#N)nc(N[C@H]2CO[C@H](CO)[C@H](O)[C@@H]2O)n1 [Compound A349, 4-(((3S,4R,5R,6R)-4,5-dihydroxy-6-(hydroxymethyl)tetrahydro-2H-pyran-3-yl)amino)-6-methoxy-1,3,5-triazine-2-carbonitrile]"
5,< 100,OC[C@H]1OC[C@H](Nc2ncc(Cl)c(C(F)(F)F)n2)[C@@H](O)[C@H]1O [Compound A324]
6,< 100,Cc1cc(C(F)(F)F)nc(N[C@H]2CO[C@H](CO)[C@H](O)[C@@H]2O)n1 [Compound A334]
7,< 100,CO[C@H]1O[C@H](CO)[C@H](O)[C@H](O)[C@H]1Nc1nccc(C(F)(F)F)n1 [Compound A377]

# Same assay, conditions: ASGPR ligands, Table 4; numeric lower bounds; read-out: ASGPR_PR Binding KD
row,Kd [µM],Compound
1,> 20,CO[C@@H]1O[C@H](CO)[C@H](O)[C@H](O)[C@H]1Nc1nc(C#N)cs1 [Compound A386]
2,> 20,OC[C@H]1OC[C@H](Nc2cc(C(F)(F)F)cnn2)[C@@H](O)[C@H]1O [Compound A308]
